Data reported in patent US20120046314A1, “[…] USE IN TREATING OR […]” (MITOS, INC., priority 2005, published 2012).

Columns and labels:
[1] = test system: Elongation factor-1-δ; experiment: Gene expression in cardiac tissue of Tempol-fed mice (chip-based microarray); format: in vivo
Procedure: (§1) To assess the effects of Tempol on gene expression, Tempol was administered to experimental mice at a dose of 5 mg/g of food from 14 months to 31 months after birth. Mice receiving the same food without the addition of Tempol were used as a negative control. At the age of 31 months, the experimental animals were sacrificed and the hearts were surgically removed. The expression of a broad spectrum of genes in the cardiac tissue was assessed using chip-based microarray technology. Such chips are well known in the art and are widely used to assess gene expression.

[2] = test system: Peroxisome Proliferator-Activated Receptor-δ; experiment: as above; format: in vivo
Procedure: as §1

[3] = test system: Meltrin-alpha (ADAM12); experiment: as above; format: in vivo
Procedure: as §1

[4] = test system: Mitogen activated protein kinase kinase 5; experiment: as above; format: in vivo
Procedure: as §1

[5] = test system: Cathepsin B; experiment: as above; format: in vivo
Procedure: as §1

[6] = test system: cancer-related proteins in the cancerous tissue; experiment: Example 2: protein levels in patient with familial risk factors for cancer after Tempol; format: in vivo, human; conditions: 70-kilogram patient with familial risk factors, no symptoms; 1500 mg per day for 180 days
Text: (§2) This may be administered in a single dose, or may be administered as a number of smaller doses over a 24-hour period: for example, three 500-mg doses at eight-hour intervals. Following treatment, the protein levels of elongation factor-1 delta, ADAM12, cathepsin B, peroxisome proliferator-activated receptor-δ, hypoxia-inducible factor alpha subunit, superoxide dismutase 2, uncoupling protein 2, and cyclooxygenase 1 in the cancerous tissue are reduced, and the levels of mitogen-activated protein kinase kinase 5, glutathione S-transferase M3, PERP, sirtuin 2, and brain protein I3 are increased.

[7] = test system: Glutathione S-transferase M3 (GSTM3); experiment: Gene expression in adipose tissue of Tempol-fed mice (Affymetrix MOE430A 2.0 array); format: in vivo
Procedure: (§3) In a further gene expression study, Tempol was administered to experimental mice at a dose of 5 g/kg of diet from 12 months through 15 months. Mice receiving the same diet without the addition of Tempol were used as a negative control. At the age of 15 months, the adipose tissue of the experimental animals was obtained. The expression of a broad spectrum of genes in the adipose tissue was assessed using chip-based microarray technology. Specifically, in this case an Affymetrix MOE430A 2.0 array, containing 12,960 genes, was employed. Such chips are well known in the art and are widely used to assess gene expression.

[8] = test system: Sirtuin 2 (SIRT2); experiment: as above; format: in vivo
Procedure: as §3

[9] = test system: Hypoxia-inducible factor, alpha subunit (HIF1A); experiment: as above; format: in vivo
Procedure: as §3

[10] = test system: p53-related apoptosis effector related to PMP-22 (PERP); experiment: as above; format: in vivo
Procedure: as §3

[11] = test system: Brain protein I3 (BRI3); experiment: as above; format: in vivo
Procedure: as §3

[12] = test system: Cyclooxygenase 1 (COX-1); experiment: as above; format: in vivo
Procedure: as §3

[13] = test system: Superoxide dismutase 2 (SOD2); experiment: as above; format: in vivo
Procedure: as §3

[14] = test system: Uncoupling protein 2 (UCP2); experiment: as above; format: in vivo
Procedure: as §3

[15] = test system: cancer-related proteins in the cancerous tissue; experiment: Example 1: protein levels in cancerous tissue of patient diagnosed with cancer after Tempol; format: in vivo, human; conditions: 70-kilogram patient diagnosed with cancer; 1500 mg per day for 180 days
Procedure: as §2, with “A 70-kilogram patient diagnosed with cancer is administered a dose of 1500 mg of Tempol per day for 180 days. This” for “This”

[16] = 5 mg/g of food from 14 to 31 months, mouse tp51
[17] = 5 mg/g of food from 14 to 31 months, mouse tp52
[18] = 5 mg/g of food from 14 to 31 months, mouse tp53
[19] = Tempol-treated vs control mice, negative = downregulated
[20] = reduction in Tempol-treated animals
[21] = 5 g/kg of diet from 12 through 15 months
[22] = Tempol-treated vs control mice, negative = downregulated, P Value 0.004

CC1(C)CC(O)CC(C)(C)N1[O] [Tempol, 4-hydroxy-2,2,6,6-tetramethylpiperidine-1-oxyl]
Elongation factor-1-δ expression, TEMPOL-treated mice tp51 [1, 16]: 12
Elongation factor-1-δ expression, TEMPOL-treated mice tp52 [1, 17]: 115
Elongation factor-1-δ expression, TEMPOL-treated mice tp53 [1, 18]: 185
Elongation factor-1-δ expression Fold change [1, 19]: −5.9 fold
Elongation factor-1-δ expression reduced (fold) [1, 20]: 5.9 fold
PPAR-δ expression, TEMPOL-treated mice tp51 [2, 16]: 1
PPAR-δ expression, TEMPOL-treated mice tp52 [2, 17]: 19
PPAR-δ expression, TEMPOL-treated mice tp53 [2, 18]: 28
PPAR-δ expression Fold change [2, 19]: −2.3 fold
PPAR-δ expression reduced (fold) [2, 20]: 2.3 fold
ADAM12 expression, TEMPOL-treated mice tp51 [3, 16]: −16
ADAM12 expression, TEMPOL-treated mice tp52 [3, 17]: −4
ADAM12 expression, TEMPOL-treated mice tp53 [3, 18]: −14
ADAM12 expression Fold change [3, 19]: −2.3 fold
ADAM12 expression reduced (fold) [3, 20]: 2.3 fold
MAPKK5 expression, TEMPOL-treated mice tp51 [4, 16]: 41
MAPKK5 expression, TEMPOL-treated mice tp52 [4, 17]: 84
MAPKK5 expression, TEMPOL-treated mice tp53 [4, 18]: 63
MAPKK5 expression Fold change ([4]; Tempol-treated vs control mice, upregulated): 2.2 fold
Cathepsin B expression, TEMPOL-treated mice tp51 [5, 16]: −12
Cathepsin B expression, TEMPOL-treated mice tp52 [5, 17]: 6
Cathepsin B expression, TEMPOL-treated mice tp53 [5, 18]: 13
Cathepsin B expression Fold change [5, 19]: −2.8 fold
Cathepsin B expression reduced (fold) [5, 20]: 2.8 fold
levels of MAPKK5, GSTM3, PERP, sirtuin 2 and brain protein I3 [6]: increased
protein levels of elongation factor-1 delta, ADAM12, cathepsin B, PPAR-δ, HIF alpha subunit, SOD2, UCP2 and COX-1 in the cancerous tissue [6]: reduced
GSTM3 expression, Mean (Tempol-treated mice) [7, 21]: 74
GSTM3 expression Fold change ([7]; Tempol-treated vs control mice, upregulated, P Value 0.001): 7.52 fold
SIRT2 expression, Mean (Tempol-treated mice) [8, 21]: 686
SIRT2 expression Fold change ([8]; Tempol-treated vs control mice, upregulated, P Value 0.048): 1.16 fold
HIF1A expression, Mean (Tempol-treated mice) [9, 21]: 2203
HIF1A expression Fold change [9, 22]: −1.23 fold
HIF1 alpha expression reduced (fold) [9, 20]: 1.23 fold
PERP expression, Mean (Tempol-treated mice) [10, 21]: 82
PERP expression Fold change ([10]; Tempol-treated vs control mice, upregulated, P Value 0.049): 1.66 fold
BRI3 expression, Mean (Tempol-treated mice) [11, 21]: 1835
BRI3 expression Fold change ([11]; Tempol-treated vs control mice, upregulated, P Value 0.003): 1.18 fold
COX-1 expression, Mean (Tempol-treated mice) [12, 21]: 331
COX-1 expression Fold change ([12]; Tempol-treated vs control mice, negative = downregulated, P Value 0.006): −1.18 fold
COX-1 expression reduced (fold) [12, 20]: 1.18 fold
SOD2 expression, Mean (Tempol-treated mice) [13, 21]: 4423
SOD2 expression Fold change [13, 22]: −1.33 fold
SOD2 expression reduced (fold) [13, 20]: 1.33 fold
UCP2 expression, Mean (Tempol-treated mice) [14, 21]: 2140
UCP2 expression Fold change ([14]; Tempol-treated vs control mice, negative = downregulated, P Value 0.012): −1.61 fold
UCP2 expression reduced (fold) [14, 20]: 1.61 fold
levels of MAPKK5, GSTM3, PERP, sirtuin 2 and brain protein I3 [15]: increased
protein levels of elongation factor-1 delta, ADAM12, cathepsin B, PPAR-δ, HIF alpha subunit, SOD2, UCP2 and COX-1 in the cancerous tissue [15]: reduced
